In ChEMBL document CHEMBL3779788, “Facile synthesis of 1,3-thiazolidin-4-ones as antitubercular agents” (Bioorg Med Chem Lett, 2016):
In brackets after ≈: the same amount, converted by molar mass.

Legend:
[1] = Cytotoxicity against human MCF7 cells at 3 ug/mL by MTT assay; assay type: cell-based; settings: read-out: INH
Escherichia coli = assay: Antibacterial activity against Escherichia coli after 18 hrs by broth dilution method; assay type: functional, organism-based
Pseudomonas = assay: Antibacterial activity against Pseudomonas after 18 hrs by broth dilution method; assay type: functional, organism-based
Bacillus subtilis = assay: Antibacterial activity against Bacillus subtilis after 18 hrs by broth dilution method; assay type: functional, organism-based
[2] = tested on: Mycobacterium bovis BCG str. ATCC 35743; assay: Antitubercular activity against dormant Mycobacterium bovis BCG ATCC 35743 assessed as growth inhibition at 10 ug/mL by NR assay; assay type: functional
[3] = (§1) Cytotoxicity against human A549 cells after 48 and 72 hrs by MTT assay; assay type: cell-based; settings: A549 cells
A549 = assay: as §1; assay type: cell-based; settings: a549, 72 h
[4] = tested on: Mycobacterium bovis BCG str. ATCC 35743; assay: Antitubercular activity against dormant Mycobacterium bovis BCG ATCC 35743 assessed as growth inhibition at 3 ug/mL by NR assay; assay type: functional
[5] = Cytotoxicity against human MCF7 cells at 30 ug/mL by MTT assay; assay type: cell-based; settings: read-out: INH
[6] = tested on: Mycobacterium bovis BCG str. ATCC 35743; assay: (§2) Antitubercular activity against dormant Mycobacterium bovis BCG ATCC 35743 by NR assay; assay type: functional
[7] = as §2; assay type: functional, Mycobacterium bovis BCG str. ATCC 35743
[8] = Cytotoxicity against human A549 cells at 3 ug/mL by MTT assay; assay type: cell-based; settings: read-out: INH
Staphylococcus aureus = assay: Antibacterial activity against Staphylococcus aureus after 18 hrs by broth dilution method; assay type: functional, organism-based
[9] = tested on: Mycobacterium bovis BCG str. ATCC 35743; assay: Antitubercular activity against dormant Mycobacterium bovis BCG ATCC 35743 assessed as growth inhibition at 30 ug/mL by NR assay; assay type: functional
[10] = Cytotoxicity against human MCF7 cells at 10 ug/mL by MTT assay; assay type: cell-based; settings: read-out: INH
[11] = Cytotoxicity against human A549 cells at 30 ug/mL by MTT assay; assay type: cell-based; settings: read-out: INH
[12] = Cytotoxicity against human HCT116 cells at 30 ug/mL by MTT assay; assay type: cell-based, HCT-116; settings: read-out: INH
[13] = tested on: Mycobacterium tuberculosis; assay: Antitubercular activity against dormant Mycobacterium tuberculosis H37Ra by XTT reduction menadione assay; assay type: functional, organism-based
[14] = tested on: Mycobacterium tuberculosis; assay: Antitubercular activity against dormant Mycobacterium tuberculosis H37Ra assessed as growth inhibition at 10 ug/mL by XTT reduction menadione assay; assay type: functional; settings: read-out: GI
[15] = Cytotoxicity against human HCT116 cells at 10 ug/mL by MTT assay; assay type: cell-based, HCT-116; settings: read-out: INH
[16] = Cytotoxicity against human A549 cells at 10 ug/mL by MTT assay; assay type: cell-based; settings: read-out: INH
[17] = Cytotoxicity against human HCT116 cells at 3 ug/mL by MTT assay; assay type: cell-based, HCT-116; settings: read-out: INH
[18] = tested on: Mycobacterium tuberculosis; assay: Antitubercular activity against dormant Mycobacterium tuberculosis H37Ra assessed as growth inhibition at 3 ug/mL by XTT reduction menadione assay; assay type: functional; settings: read-out: GI
MCF7 = assay: (§3) Cytotoxicity against human MCF7 cells after 48 and 72 hrs by MTT assay; assay type: cell-based; settings: mcf7, 72 h
[19] = as §3; assay type: cell-based; settings: MCF7 cells
[20] = Cytotoxicity against human HCT116 cells after 48 and 72 hrs by MTT assay; assay type: cell-based, HCT-116; settings: for GI50 at 72 h: HCT116 cells; for GI90: hct-116, 72 h
[21] = tested on: Mycobacterium tuberculosis; assay: Antitubercular activity against dormant Mycobacterium tuberculosis H37Ra assessed as growth inhibition at 30 ug/mL by XTT reduction menadione assay; assay type: functional; settings: read-out: GI

SMILES	cytotoxicity at 3 ug/mL [1] [%]	growth inhibition (GI) [2] [%]	GI50 at 72 h [3] [µg/mL]	GI90 (A549) [µg/mL]	growth inhibition (GI) [4] [%]	cytotoxicity at 30 ug/mL [5] [%]	IC90 [6] [µg/mL]	IC50 [7] [µg/mL]	cytotoxicity at 3 ug/mL [8] [%]	growth inhibition (GI) [9] [%]	cytotoxicity at 10 ug/mL [10] [%]	cytotoxicity at 30 ug/mL [11] [%]	cytotoxicity at 30 ug/mL [12] [%]	IC50 [13] [µg/mL]	IC90 [13] [µg/mL]	inhibition of growth at 10 µg/mL [14] [%]	cytotoxicity at 10 ug/mL [15] [%]	cytotoxicity at 10 ug/mL [16] [%]	cytotoxicity at 3 ug/mL [17] [%]	inhibition of growth at 3 µg/mL [18] [%]	also measured
O=C1CSC(c2ccccc2)N1c1ccc(F)cc1 (stereo unspecified)	-3.9	19.5	> 100	> 100	27.7	7.5	> 30	> 30	-13.4	31	0	11	-6	19.8 (≈ 72.4 µM)	> 30	31.4	5.3	0	-5.4	7.5	IC50 (Escherichia coli): > 30 µg/mL; MIC (Escherichia coli): > 30 µg/mL; IC50 (Pseudomonas): > 30 µg/mL; MIC (Pseudomonas): > 30 µg/mL; IC50 (Bacillus subtilis): > 30 µg/mL; MIC (Bacillus subtilis): > 30 µg/mL; IC50 (Staphylococcus aureus): > 30 µg/mL; MIC (Staphylococcus aureus): > 30 µg/mL; GI90 (MCF7): > 100 µg/mL; GI50 at 72 h [19]: > 100 µg/mL; GI50 at 72 h [20]: > 100 µg/mL; GI90 [20]: > 100 µg/mL; inhibition of growth at 30 µg/mL [21]: 70%
COc1ccc(N2C(=O)CSC2c2ccccc2)cc1 (stereo unspecified)	-10	30.2	> 100	> 100	-0.1	15.4	> 30	> 30	-0.1	71.9	8.9	4.4	10.2	2.2 (≈ 7.71 µM)	24 (≈ 84.1 µM)	86	7.2	0	-6.1	65.4	IC50 (Escherichia coli): > 30 µg/mL; MIC (Escherichia coli): > 30 µg/mL; IC50 (Pseudomonas): > 30 µg/mL; MIC (Pseudomonas): > 30 µg/mL; IC50 (Bacillus subtilis): > 30 µg/mL; MIC (Bacillus subtilis): > 30 µg/mL; IC50 (Staphylococcus aureus): > 30 µg/mL; MIC (Staphylococcus aureus): > 30 µg/mL; GI90 (MCF7): > 100 µg/mL; GI50 at 72 h [19]: > 100 µg/mL; GI50 at 72 h [20]: > 100 µg/mL; GI90 [20]: > 100 µg/mL; inhibition of growth at 30 µg/mL [21]: 91.4%
CC(=O)O[C@H]1C(=O)[C@@]2(C)[C@H]([C@H](OC(=O)c3ccccc3)[C@]3(O)C[C@H](OC(=O)[C@H](O)[C@@H](NC(=O)c4ccccc4)c4ccccc4)C(C)=C1C3(C)C)[C@]1(OC(C)=O)CO[C@@H]1C[C@@H]2O [PACLITAXEL]	–	–	0.039 (≈ 0.0457 µM)	< 0.004	–	–	–	–	–	–	–	–	–	–	–	–	–	–	–	–	GI90 (MCF7): 0.0039 µg/mL (≈ 0.00457 µM); GI50 at 72 h [19]: 0.075 µg/mL (≈ 0.0878 µM); GI50 at 72 h [20]: 5.21 µg/mL (≈ 6.1 µM); GI90 [20]: 0.026 µg/mL (≈ 0.0304 µM)
O=C1CSC(c2ccc(Cl)cc2)N1c1ccc(F)cc1 (stereo unspecified)	12.4	-9.9	–	–	-2.1	26.1	> 30	> 30	0	-1	11.5	0	34.5	> 30	> 30	-3.2	0.2	0	-6.2	8.8	inhibition of growth at 30 µg/mL [21]: -45.6%
